In patent publication US11535597B2, “Photoreactive ligands and uses thereof” (The Scripps Research Institute, priority 2017, dated 2022):

Legend:
PTGR2 [1] = molecular target: T1, PTGR2 (Homo sapiens, UniProt Q8N8N7); test: In vitro LCMS-based activity assay for PTGR2 (15-keto-PGE2 reductase activity); format: biochemical
Experimental: Aliquots (1 μL) of test compounds dissolved in DMSO were transferred to 1.5 mL eppendorf tubes followed by addition of recombinant human PTGR2 (44 μL, 200 nM final concentration) in freshly prepared reaction buffer (Tris Buffer, 1 mM EDTA, 50 μM TCEP, 300 μM NADPH). The resulting mixture was vortexed and then incubated at 37° C. for 20 min. Next, a 5 μL solution of 15-keto-PGE2 substrate (20 μM final concentration) in reaction buffer was added and the reaction was allowed to proceed for 30 min at 37° C. Reactions were quenched by the addition of 0.5% AcOH in ethyl acetate (800 μL), water (300 μL) and 100 μL of internal standard PGE2-d4 (30 pmol/sample) dissolved in 1:1 methanol/water. Phases were separated by centrifugation and the organic layer was collected and dried under a stream of N2, then stored at −80° C. until analysis. Directly prior to analysis, samples were reconstituted in 100 μL of MeCN:H2O (1:1, v/v) and analyzed by LC/MS/MS. All conditions were performed in triplicate and repeated at least three independent times.
The following MS parameters were used to measure the indicated metabolites by MRM (precursor ion, product ion, collision energy, polarity): PGE2-d4 (355, 275, 18), 13,14-dihydro-15-keto-PGE2 (351, 333, 18) and 15-keto-PGE2 (349, 161, 20). 15-keto-PGE2 and 13,14-dihydro-15-keto-PGE2 levels were quantified by determining peak areas in relation to internal standard PGE2-d4. Non-deuterated 15-keto-PGE2 and 13,14-dihydro-15-keto-PGE2 standards were used to confirm retention time and fragmentation.
All data fitting and statistical analysis performed using GraphPad Prism version 6.00 for Windows, GraphPad Software, La Jolla Calif. USA, www.graphpad.com. Statistical values including the exact n and statistical significance are also reported. Probe binding blockade and PTGR2 inhibition curves are plotted as mean±SD (n=3 or 4 per group) for a representative biological replicate using a variable slope (four parameter) non-linear fit. Gene expression data are presented as mean±SD (n=3 per group). HSC5 metabolite data are shown as mean±SD (n=3 per group). Statistical significance was defined as P<0.05 and determined by 2-tailed Student t tests, or two-way ANOVA with Bonferroni's post-tests.

PTGR2 [2] = molecular target: T1, PTGR2; test: Gel-based competitor blockade of FFF 8 labeling of recombinantly expressed FLAG-tagged PTGR2 in HEK293T cells; format: binding
Experimental: (§1) For gel-based experiments, cells were grown in 6-well plates to ˜90% confluence at the time of treatment. Cells were carefully washed with Dulbecco's phosphate buffered saline (DPBS) and replenished with fresh serum-free media containing indicated FFF probe, and, if applicable, competitors or DMSO vehicle (1 mL). Following incubation at 37° C. for 30 min, cells were directly exposed to 365 nm light for 10 min. For no UV experiments, cells were incubated at 4° C. for 10 min under ambient light. For MS-based experiments, cell labeling was performed in a similar manner as described above. Modifications to this protocol included using isotopically ‘light’ and ‘heavy’ SILAC cells that were grown to near complete confluence prior to treatment in 10 cm plates. […]
(§2) Cells pellets were lysed in cold DPBS (100-500 µL) using a Branson Sonifier probe sonicator (10 pulses, 30% duty cycle, output setting=4). […] Protein concentration was determined using the DC Protein Assay (Bio-Rad) and absorbance read using a Tecan, Infinite F500 plate reader following manufacturer's instructions. […]
(§3) Proteomes from treated cells were diluted to 1 mg/mL. […] Proteins (25 µg total protein loaded per gel lane) were resolved using SDS-PAGE (10% acrylamide) and visualized by in-gel fluorescence on a Hitachi FMBIO-II or a Bio-Rad ChemiDoc™ MP flatbed fluorescence scanner. […]

PTGR2 [3] = molecular target: T1, PTGR2; test: PPARγ luciferase reporter assay in PTGR2-transfected HEK293T cells (15-keto-PGE2-dependent); format: cell-based; conditions: cells recombinantly expressing PTGR2
Experimental: (§4) HEK293T cells were transiently co-transfected using Polyethylenimine (Sigma) with a UAS-Luciferase reporter and a vector expressing the heterologous GAL4 DNA binding domain (DBD) or a GAL4 DNA binding domain::PPARγ ligand binding domain (LBD) chimeric protein, and full-length PTGR2. 24 hr after transfection, cells were treated either with vehicle (DMSO), 15k-PGE2 (20 μM), or fragment compounds. Rosiglitazone (2 μM), a synthetic PPARγ ligand, was used as control. 16 hr after incubation, cells were lysed in Cell Culture Lysis Reagent (Promega) and luciferase activity measured using the Luciferase Assay System (Promega).

PPARγ = molecular target: T2, PPARγ (Homo sapiens, UniProt P37231); test: GAL4-PPARγ luciferase reporter assay with empty control vector in HEK293T cells; format: cell-based; conditions: GAL4-PPARγ luciferase reporter and empty control vector
T2 construct: expressed in transfected cells; host or cells: HEK293T
T2 sequence (P37231 238-503 limits assumed): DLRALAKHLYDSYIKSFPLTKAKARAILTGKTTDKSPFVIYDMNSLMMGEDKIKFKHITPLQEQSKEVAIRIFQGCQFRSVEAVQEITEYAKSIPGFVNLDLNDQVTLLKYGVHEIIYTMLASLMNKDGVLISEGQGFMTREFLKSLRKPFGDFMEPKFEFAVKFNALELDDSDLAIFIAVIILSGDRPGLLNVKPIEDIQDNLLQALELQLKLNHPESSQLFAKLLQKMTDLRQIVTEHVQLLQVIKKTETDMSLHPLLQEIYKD
Experimental: as §4

PTGR2 [4] = molecular target: T1, PTGR2; conditions: only reported inhibitor of PTGR2; read-out: in vitro IC50 (PTGR2); cited from earlier work
[5] = test system: proteins in HEK293T cells; test: Gel-based profiling of FFF probe-protein labeling in cells; format: binding, human; conditions: 20 μM, 30 min, UV
Experimental: as §1, §2, §3

T1 sequence (Q8N8N7 whole entry): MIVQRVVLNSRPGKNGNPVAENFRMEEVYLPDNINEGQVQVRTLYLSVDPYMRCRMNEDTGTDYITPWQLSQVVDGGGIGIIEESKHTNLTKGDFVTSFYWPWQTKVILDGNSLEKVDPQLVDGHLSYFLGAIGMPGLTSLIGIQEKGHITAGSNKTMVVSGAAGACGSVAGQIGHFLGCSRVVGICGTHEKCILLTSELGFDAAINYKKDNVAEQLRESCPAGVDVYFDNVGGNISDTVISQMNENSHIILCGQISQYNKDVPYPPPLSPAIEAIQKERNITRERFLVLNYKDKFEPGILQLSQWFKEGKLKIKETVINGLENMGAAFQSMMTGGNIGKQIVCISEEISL

COc1ccccc1C1CCN(S(=O)(=O)Cc2ccccc2)CC1 [Compound 23, 1-(Benzylsulfonyl)-4-(2-methoxyphenyl)piperidine]
effect on 15-keto-PGE2 reductase (catalytic) activity of recombinant PTGR2 (PTGR2 [1]): did not affect | competitor blockade of FFF 8 labeling of recombinant PTGR2 (gel) (PTGR2 [2]): did not affect | 15-keto-PGE2-dependent PPARγ transcriptional activity (PTGR2 [3]): no effect | direct modulation of PPARγ transcriptional activity (PPARγ): Neither 22 nor 23 directly modulated

COc1ccc2c(c1)c(CC(=O)O)c(C)n2C(=O)c1ccc(Cl)cc1 [indomethacin]
IC50 (PTGR2 [4]): ~200 µM

C#CCCC1(CCC(=O)NC)N=N1 [probe 1, 3-(3-(But-3-yn-1-yl)-3H-diazirin-3-yl)-N-methylpropanamide]
protein labeling in HEK293T cells (in-gel fluorescence) [5]: much less protein labeling
